Reference: article PMC9374667 (Communications Biology, 2022)
Where “and” joins values, the source holds several entries; their conditions need not be identical. Identical values can stand only once.

Tests used:
db/db mice = assay: Indirect calorimetry (CLAMS): VO2, VCO2, RER; format: in vivo; parameters: Figure 3g (VCO2), individual mice 1-6: unit not given here; conditions: for Figure 3g (VCO2), individual mice 1-6 / Figure 3e (VO2), individual mice 1-6: BBR 150mg/kg; for Figure 3e (VO2), individual mice 1-6: in mL/kg/h (unit assumed); for Average RER (VCO2/VO2) / Average VCO2 / Average VO2: 150 mg/kg for 5 weeks, individual mice, 150 mg/kg
Experimental: At week 5 of treatment, basal metabolic parameters of mice were measured using the Comprehensive Lab Animal Monitoring System (CLAMS, Columbus Instruments, Columbus, OH). […] The number of times the infrared beams were broken along the X- or Y-axis was used to measure the dynamic activity of mice. The respiratory exchange rate (RER) was calculated using classical Lusk theory and equations RER = VCO2/VO2.

[1] = no reference given; cited from earlier work
[2] = cited from earlier work

Compound: COc1ccc2cc3[n+](cc2c1OC)CCc1cc2c(cc1-3)OCO2 [BBR, Berberine chloride dihydrate]
- Figure 3g (VCO2), individual mice 1-6 (db/db mice; TIME 09:00:00): 2187 and 1798.5 and 1382 and 1550.5 and 1282 and 1729
- Figure 3e (VO2), individual mice 1-6 (db/db mice; TIME 09:00:00): 2463.5 and 1992.5 and 1618.5 and 1830.5 and 1604 and 1996.5
- Figure 3g (VCO2), individual mice 1-6 (db/db mice; TIME 10:00:00): 2025.5 and 1306.5 and 1293 and 1507.5 and 1152.5 and 1351.5
- Figure 3e (VO2), individual mice 1-6 (db/db mice; TIME 10:00:00): 2239.5 and 1396.5 and 1525.5 and 1818.5 and 1443 and 1558.5
- Figure 3g (VCO2), individual mice 1-6 (db/db mice; TIME 11:00:00): 1508.5 and 1801 and 1600.5 and 1450.5 and 1810.5 and 2131.5
- Figure 3e (VO2), individual mice 1-6 (db/db mice; TIME 11:00:00): 1686.5 and 2034 and 1941 and 1727 and 2185.5 and 2486.5
- Figure 3g (VCO2), individual mice 1-6 (db/db mice; TIME 12:00:00): 1560 and 1682.5 and 1287 and 1655.5 and 1234 and 1351
- Figure 3e (VO2), individual mice 1-6 (db/db mice; TIME 12:00:00): 1799.5 and 1905 and 1604.5 and 1986.5 and 1472.5 and 1528
- Figure 3g (VCO2), individual mice 1-6 (db/db mice; TIME 13:00:00): 1425.5 and 1753 and 2069 and 1636 and 1111.5 and 1447.5
- Figure 3e (VO2), individual mice 1-6 (db/db mice; TIME 13:00:00): 1585 and 1943.5 and 2523.5 and 1919 and 1415 and 1703
- Figure 3g (VCO2), individual mice 1-6 (db/db mice; TIME 14:00:00): 1628.5 and 1269.5 and 1997.5 and 1334 and 1382 and 1265.5
- Figure 3e (VO2), individual mice 1-6 (db/db mice; TIME 14:00:00): 1785 and 1394 and 2318.5 and 1559 and 1696.5 and 1512.5
- Figure 3g (VCO2), individual mice 1-6 (db/db mice; TIME 15:00:00): 1579.5 and 1285 and 1642.5 and 1147.5 and 2064.5 and 1675
- Figure 3e (VO2), individual mice 1-6 (db/db mice; TIME 15:00:00): 1826 and 1499.5 and 1948.5 and 1433.5 and 2445.5 and 1943
- Figure 3g (VCO2), individual mice 1-6 (db/db mice; TIME 16:00:00): 1579 and 1741 and 1899.5 and 1326 and 1630.5 and 1658.5
- Figure 3e (VO2), individual mice 1-6 (db/db mice; TIME 16:00:00): 1816.5 and 2044.5 and 2249 and 1622.5 and 1845.5 and 1914
- Figure 3g (VCO2), individual mice 1-6 (db/db mice; TIME 17:00:00): 1290.5 and 1905.5 and 1610 and 1666.5 and 1315 and 1412.5
- Figure 3e (VO2), individual mice 1-6 (db/db mice; TIME 17:00:00): 1507 and 2598 and 1769 and 2019 and 1551.5 and 1596.5
- Figure 3g (VCO2), individual mice 1-6 (db/db mice; TIME 18:00:00): 1292.5 and 1365.5 and 1937 and 1461.5 and 1206 and 1444
- Figure 3e (VO2), individual mice 1-6 (db/db mice; TIME 18:00:00): 1496 and 1510 and 2285 and 1793 and 1482.5 and 1701
- Figure 3g (VCO2), individual mice 1-6 (db/db mice; TIME 19:00:00): 1404 and 1310 and 1770.5 and 1481 and 1876 and 2094
- Figure 3e (VO2), individual mice 1-6 (db/db mice; TIME 19:00:00): 1643.5 and 1465 and 2034 and 1838.5 and 2235 and 2481.5
- Figure 3g (VCO2), individual mice 1-6 (db/db mice; TIME 20:00:00): 1181 and 2034.5 and 1933 and 1597 and 1575 and 1493.5
- Figure 3e (VO2), individual mice 1-6 (db/db mice; TIME 20:00:00): 1393.5 and 2338.5 and 2268.5 and 1885.5 and 1848 and 1679
- Figure 3g (VCO2), individual mice 1-6 (db/db mice; TIME 21:00:00): 1529.5 and 1566 and 1830 and 1676.5 and 1825.5 and 1630.5
- Figure 3e (VO2), individual mice 1-6 (db/db mice; TIME 21:00:00): 1863.5 and 1748.5 and 2189 and 2027 and 2201.5 and 1886
- Figure 3g (VCO2), individual mice 1-6 (db/db mice; TIME 22:00:00): 1627 and 2225 and 1746.5 and 1760.5 and 1520.5 and 2058.5
- Figure 3e (VO2), individual mice 1-6 (db/db mice; TIME 22:00:00): 1913.5 and 2540.5 and 2028.5 and 2082.5 and 1881 and 2440
- Figure 3g (VCO2), individual mice 1-6 (db/db mice; TIME 23:00:00): 1717.5 and 1505 and 2209 and 1848.5 and 1914.5 and 1764
- Figure 3e (VO2), individual mice 1-6 (db/db mice; TIME 23:00:00): 1949 and 1704 and 2610 and 2181 and 2319.5 and 2010
- Figure 3g (VCO2), individual mice 1-6 (db/db mice; TIME 1900-01-01): 2124.5 and 2214 and 2120 and 1937 and 2080.5 and 2184
- Figure 3g (VCO2), individual mice 1-6 (db/db mice; TIME 1900-01-01 01:00:00): 2199 and 2168 and 2133.5 and 2137.5
- Figure 3e (VO2), individual mice 1-6 (db/db mice; TIME 1900-01-01 01:00:00): 2537.5 and 2453.5 and 2566.5 and 2667.5
- Figure 3e (VO2), individual mice 1-6 (db/db mice; TIME 1900-01-01): 2407.5 and 2513.5 and 2566 and 2292.5 and 2527.5 and 2541
- Average RER (VCO2/VO2) (db/db mice; db/db mice, day (light)): 0.8616 and 0.8798 and 0.8875 and 0.8398 and 0.8298 and 0.8335
- Average VCO2 (db/db mice; db/db mice, day (light)): 27.0427 mL/min/kg and 26.0915 mL/min/kg and 26.8287 mL/min/kg and 27.4625 mL/min/kg and 24.4077 mL/min/kg and 25.0565 mL/min/kg
- Average VO2 (db/db mice; db/db mice, day (light)): 31.4158 mL/min/kg and 29.6362 mL/min/kg and 30.277 mL/min/kg and 32.69 mL/min/kg and 29.3548 mL/min/kg and 30.0223 mL/min/kg
- Average RER (VCO2/VO2) (db/db mice; db/db mice, night (dark)): 0.8596 and 0.865 and 0.8782 and 0.8452 and 0.8334 and 0.8299
- Average VCO2 (db/db mice; db/db mice, night (dark)): 30.8835 mL/min/kg and 33.2053 mL/min/kg and 32.3175 mL/min/kg and 33.4173 mL/min/kg and 30.4887 mL/min/kg and 29.875 mL/min/kg
- Average VO2 (db/db mice; db/db mice, night (dark)): 35.933 mL/min/kg and 38.3562 mL/min/kg and 36.82 mL/min/kg and 39.5103 mL/min/kg and 36.573 mL/min/kg and 36.013 mL/min/kg
- Oxygen consumption (VO2) and carbon dioxide elimination (VCO2) levels (db/db mice; db/db mice, light-dark cycle, 5 weeks of treatment, vs vehicle): significantly higher than those in the vehicle-treated group
- Oral bioavailability [1]: below 1%
- Maximum plasma concentration (Cmax) ([2]; acute oral BBR (400 mg) provocation tests): approximately 0.4 ng/ml
- Share of the oral dose that enters the systemic circulation ([2]; human subjects): less than 5%
- Steady-state concentration in human plasma ([2]; oral BBR 300 mg/d for seven days): approximately 0.3 ng/ml
